Data as given in patent US7402424B2, “Spectroscopic pH measurement at high-temperature and/or high-pressure” (Schlumberger Technology Corporation, priority 2006, dated 2008).
Read-outs that look alike come from different tables or passages of the source.

Assays:
[1] = pKa of reagents (reagent properties used in the model of FIG. 2a); type: physicochemical; settings: reagent property used in the model of FIG. 2a
[2] = Molar absorptivity ε of acid and base forms of reagents at 570 nm and 445 nm; type: physicochemical; settings: for ε at 445 nm (λ1), Acid / ε at 570 nm (λ2), Acid: acid form; for ε at 445 nm (λ1), Acid / ε at 445 nm (λ1), Base / ε at 570 nm (λ2), Base: in M-1·cm-1 (unit assumed); for ε at 445 nm (λ1), Base / ε at 570 nm (λ2), Base: base form (sodium salt of the reagent)

SMILES	pKa ([1]; read-out: pKa)	pKa [1]	ε at 445 nm (λ1), Acid [2]	ε at 570 nm (λ2), Acid [2] [M⁻¹ cm⁻¹]	ε at 445 nm (λ1), Base [2]	ε at 570 nm (λ2), Base [2]
O=S1(=O)OC(c2ccc(O)cc2)(c2ccc(O)cc2)c2ccccc21 [Phenol Red]	7.79	–	–	–	–	–
O=S1(=O)OC(c2ccc(O)c(Cl)c2)(c2ccc(O)c(Cl)c2)c2ccccc21 [Chlorophenol Red]	–	6.11	18136	58	1985	54247
O=S1(=O)OC(c2cc(Br)c(O)c(Br)c2)(c2cc(Br)c(O)c(Br)c2)c2ccccc21 [Bromophenol Blue]	–	4.11	21711	378	1981	46859
